# Legend:
# protein kinase A (PKA) = protein kinase A (PKA) (Homo sapiens, UniProt P17612); details: cited from earlier work
# [1] = target: mitogen- and stress-activated protein kinase 1 (MSK-1) (Homo sapiens, UniProt O75582); details: 20 μM; cited from earlier work
# recombinant BK (mSlo1) = target: T1, recombinant BK (mSlo1) (Mus musculus, UniProt Q08460); assay: Cell-free outside-out/inside-out patch single channel recordings from HEK cells; assay type: biochemical, murine
# T1 construct: expressed in transfected cells
# Procedure: Ca^2+ was maintained at 0 (virtual; actual <20 nM) through dialysis using a patch pipette.
# [2] = target: glycogen synthase kinase 3β (Homo sapiens, UniProt P49841); details: 20 μM; cited from earlier work
# HDM-exposed mice = assay: House dust mite (HDM) sensitized asthma model
# Procedure: House dust mite (HDM) is one of the most common aeroallergens and is implicated in allergy and asthma symptoms in ˜10% of the population (Johnson et al., “Continuous exposure to house dust mite elicits chronic airway inflammation and structural remodeling.” Am J Respir Crit Care Med 169:378-385 (2004)). Exposure to HDM extract elicits a severe and persistent eosinophilic airway inflammation. Mice were exposed to purified HDM extract (Greer Laboratories, Lenoir, N.C.) intranasally (25 μg of protein in 10 μl saline) for 5 days/week for 3 weeks as previously described (Id.). […] Changes in pressure, flow, and volume were recorded, and airway resistance was calculated from peak values after each challenge using a Buxco forced maneuvers system and restrained whole body plethysmography (rWBP; PLY3011 chamber, Buxco (BUXCO Electronics Inc., Troy, N.Y.)).
# other PKC isozymes = details: cited from earlier work
# tracheal rings = assay: Isoproterenol-induced relaxation of tracheal rings from PBS- and OVA-sensitized animals; assay type: cell-based, murine; parameters: isoproterenol-induced relaxation: dose or concentration left out as unconfirmed
# Procedure: The isoproterenol-induced relaxation of tracheal rings from OVA-sensitized asthmatic animals was also tested. After induction of asthma, tracheal rings were removed and mounted on the myograph. […] At the conclusion of the experiment, each tracheal ring was exposed to methacholine to ensure viability of the ring and equivalent constriction.
# After induction of asthma, tracheal rings were removed and mounted on the myograph. […] The ISO-relaxation curve was shifted downward and to the right, with the maximal relaxation response reduced to only ˜25% from more than 60%.
# rats = details: 10-20 mg/kg/day×6 days; cited from earlier work
# [3] = target: glutamate-aspartate transporter (GLAST) (Homo sapiens, UniProt P43003); details: cited from earlier work
# [4] = system: membrane potential of tracheal smooth muscle cells; assay: Membrane potential measurement in tracheal smooth muscle cells; assay type: cell-based, mice
# Procedure: In this experiment, murine tracheal smooth muscle cells were acutely isolated and whole cell patch clamped as previously described (Zakharov, S. et al., (2005) J Biol Chem 280, 30882-30887).
# The membrane potential was recorded using perforated patch clamp technique.
# casein kinase II = casein kinase II (Homo sapiens, UniProt P68400); details: cited from earlier work
# PKA = PKA (Homo sapiens, UniProt P17612); details: 20 μM; cited from earlier work
# [5] = system: Jurkat T cells and purified human CD4+ T cells; details: cited from earlier work
# [6] = target: T2, BKCa channel α (mSlo) and β1 subunits (Mus musculus, UniProt Q08460); assay: Whole cell recording of HEK cells co-expressing α and β1 subunits; assay type: cell-based; details: HEK293 cells expressing both mSlo and β1 subunit
# T2 construct: expressed in transfected cells; host or cells: HEK293
# Procedure: Current was monitored with a ramp protocol; holding potential −60 mV, with ramp from −80 mV to +150 mV over 500 ms. Extracellular application of NS-1619 (10 μM) increased current as previously described (Olesen, et al., Selective activation of Ca^2+-dependent K^+ channels by novel benzimidazolone. Eur. J. Pharmacol., 1994. 251(1):53-9). […] Analysis was performed using tail analysis with normalization as previously described (Xia, et al., Multiple regulatory sites in large-conductance calcium-activated potassium channels. Nature, 2002. 418(6900):880-4). […] Identification of the BKCa channel was determined by conductance and inhibition by iberiotoxin and TEA. […] Murine femoral arterial rings were isolated and placed in a wire myograph. […] The figures shown are representative of 4 similar experiments. Error bars are standard error of the mean (SEM). Asterisk (*) indicates p<0.001.
# T1 sequence (Q08460 whole entry): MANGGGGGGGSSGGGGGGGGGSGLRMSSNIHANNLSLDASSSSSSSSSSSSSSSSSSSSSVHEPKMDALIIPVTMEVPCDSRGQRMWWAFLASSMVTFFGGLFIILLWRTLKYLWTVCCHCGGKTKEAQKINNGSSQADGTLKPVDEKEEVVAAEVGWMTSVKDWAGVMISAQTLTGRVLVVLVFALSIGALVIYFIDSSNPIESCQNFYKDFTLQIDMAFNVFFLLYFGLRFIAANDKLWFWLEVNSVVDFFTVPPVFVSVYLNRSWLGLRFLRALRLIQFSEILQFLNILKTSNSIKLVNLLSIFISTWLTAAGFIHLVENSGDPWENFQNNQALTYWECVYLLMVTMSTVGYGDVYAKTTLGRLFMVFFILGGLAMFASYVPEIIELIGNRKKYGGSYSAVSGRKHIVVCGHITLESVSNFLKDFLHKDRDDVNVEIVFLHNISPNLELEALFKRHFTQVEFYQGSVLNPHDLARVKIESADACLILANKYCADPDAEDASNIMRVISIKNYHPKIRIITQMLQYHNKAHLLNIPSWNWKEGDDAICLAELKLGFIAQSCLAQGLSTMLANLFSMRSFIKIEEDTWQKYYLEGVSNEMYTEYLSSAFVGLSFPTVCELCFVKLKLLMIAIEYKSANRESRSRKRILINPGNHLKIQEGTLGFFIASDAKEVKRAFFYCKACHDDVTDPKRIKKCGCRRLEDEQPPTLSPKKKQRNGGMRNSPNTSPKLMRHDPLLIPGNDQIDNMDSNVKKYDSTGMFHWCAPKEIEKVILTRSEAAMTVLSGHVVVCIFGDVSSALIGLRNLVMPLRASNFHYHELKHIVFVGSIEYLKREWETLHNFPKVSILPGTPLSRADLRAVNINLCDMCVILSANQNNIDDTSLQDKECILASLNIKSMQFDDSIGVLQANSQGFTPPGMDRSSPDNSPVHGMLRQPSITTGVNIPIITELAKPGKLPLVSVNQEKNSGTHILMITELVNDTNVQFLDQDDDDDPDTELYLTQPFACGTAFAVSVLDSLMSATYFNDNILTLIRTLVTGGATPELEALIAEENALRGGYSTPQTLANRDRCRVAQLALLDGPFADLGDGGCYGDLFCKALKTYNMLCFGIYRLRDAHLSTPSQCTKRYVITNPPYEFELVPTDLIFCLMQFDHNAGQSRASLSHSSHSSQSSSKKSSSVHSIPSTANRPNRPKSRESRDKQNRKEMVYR
# glutamate-aspartate transporter (GLAST), sequence (P43003 whole entry, species assumed): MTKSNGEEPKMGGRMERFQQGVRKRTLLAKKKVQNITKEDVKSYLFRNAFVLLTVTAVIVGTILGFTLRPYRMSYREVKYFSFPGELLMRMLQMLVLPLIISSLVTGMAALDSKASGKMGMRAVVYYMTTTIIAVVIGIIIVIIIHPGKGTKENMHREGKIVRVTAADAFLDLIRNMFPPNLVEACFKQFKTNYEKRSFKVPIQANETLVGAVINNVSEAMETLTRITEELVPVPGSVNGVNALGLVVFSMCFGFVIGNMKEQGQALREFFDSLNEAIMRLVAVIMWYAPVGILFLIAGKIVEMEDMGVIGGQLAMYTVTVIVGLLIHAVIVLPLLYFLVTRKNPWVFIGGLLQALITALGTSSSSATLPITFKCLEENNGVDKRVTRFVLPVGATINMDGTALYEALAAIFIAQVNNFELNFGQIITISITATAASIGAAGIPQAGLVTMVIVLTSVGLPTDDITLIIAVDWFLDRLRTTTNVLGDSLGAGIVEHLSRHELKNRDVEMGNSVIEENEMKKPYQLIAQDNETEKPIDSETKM
# casein kinase II, sequence (P68400 whole entry): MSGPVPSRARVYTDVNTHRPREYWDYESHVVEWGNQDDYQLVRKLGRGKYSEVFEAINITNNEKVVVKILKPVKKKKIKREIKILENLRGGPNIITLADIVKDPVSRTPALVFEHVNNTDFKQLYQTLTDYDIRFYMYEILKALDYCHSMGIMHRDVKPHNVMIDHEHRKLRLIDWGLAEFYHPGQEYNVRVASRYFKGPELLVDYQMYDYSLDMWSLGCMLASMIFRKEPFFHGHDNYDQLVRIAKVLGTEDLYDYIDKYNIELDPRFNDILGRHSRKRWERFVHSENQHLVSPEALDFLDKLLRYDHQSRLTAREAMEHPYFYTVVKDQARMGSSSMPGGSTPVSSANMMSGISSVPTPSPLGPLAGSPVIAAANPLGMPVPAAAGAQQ
# T2 sequence (Q08460 whole entry): as the sequence (Q08460 whole entry) above
# glycogen synthase kinase 3β, sequence (P49841 whole entry): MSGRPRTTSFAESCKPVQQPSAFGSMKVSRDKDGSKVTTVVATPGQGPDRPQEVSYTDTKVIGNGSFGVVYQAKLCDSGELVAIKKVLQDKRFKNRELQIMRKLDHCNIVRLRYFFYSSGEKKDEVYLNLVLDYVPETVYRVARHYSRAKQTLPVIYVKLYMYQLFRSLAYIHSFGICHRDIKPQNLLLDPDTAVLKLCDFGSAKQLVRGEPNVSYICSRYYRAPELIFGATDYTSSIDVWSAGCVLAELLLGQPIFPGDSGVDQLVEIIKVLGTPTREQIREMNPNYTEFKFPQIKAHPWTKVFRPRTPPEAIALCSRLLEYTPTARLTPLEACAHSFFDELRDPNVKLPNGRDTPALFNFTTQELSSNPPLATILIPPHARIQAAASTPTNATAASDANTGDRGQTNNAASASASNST
# mitogen- and stress-activated protein kinase 1 (MSK-1), sequence (O75582 whole entry, species assumed): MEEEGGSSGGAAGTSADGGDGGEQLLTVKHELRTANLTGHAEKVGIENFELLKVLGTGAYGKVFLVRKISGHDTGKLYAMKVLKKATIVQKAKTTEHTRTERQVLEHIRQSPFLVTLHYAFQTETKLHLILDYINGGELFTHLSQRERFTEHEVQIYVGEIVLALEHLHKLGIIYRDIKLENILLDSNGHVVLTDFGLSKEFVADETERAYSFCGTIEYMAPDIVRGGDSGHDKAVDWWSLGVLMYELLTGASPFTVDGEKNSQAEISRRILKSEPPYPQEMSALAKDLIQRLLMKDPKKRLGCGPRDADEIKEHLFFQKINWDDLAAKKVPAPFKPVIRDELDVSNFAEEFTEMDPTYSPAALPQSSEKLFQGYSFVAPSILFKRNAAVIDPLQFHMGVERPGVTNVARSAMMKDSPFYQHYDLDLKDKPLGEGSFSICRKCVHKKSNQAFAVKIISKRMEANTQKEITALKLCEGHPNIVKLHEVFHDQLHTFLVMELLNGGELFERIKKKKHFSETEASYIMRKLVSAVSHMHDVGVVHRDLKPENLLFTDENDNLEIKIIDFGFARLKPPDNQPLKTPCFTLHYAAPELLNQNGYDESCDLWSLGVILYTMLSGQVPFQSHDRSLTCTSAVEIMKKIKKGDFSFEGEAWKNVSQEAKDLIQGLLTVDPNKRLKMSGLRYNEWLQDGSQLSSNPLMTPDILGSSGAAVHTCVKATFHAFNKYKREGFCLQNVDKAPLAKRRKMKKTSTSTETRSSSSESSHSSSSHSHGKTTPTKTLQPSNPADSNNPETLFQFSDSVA
smiles,measurement,setting,value
"CC(=O)c1c(O)c(C)c(O)c(Cc2c(O)c3c(c(C(=O)/C=C/c4ccccc4)c2O)OC(C)(C)C=C3)c1O [rottlerin, 5,7-dihydroxy-2,2-dimethyl-6-(2,4,6-trihydroxy-3-methyl-5-acetylbenzyl)-8-cinnamoyl-I,2-chromene]",IC50,protein kinase A (PKA),30 to 100 µM
same,inhibition,[1],62%
same,channel open probability,"recombinant BK (mSlo1); 0.5 μM rottlerin, outside-out patches from HEK cells, absence of ATP",significant increase
same,experiments in which activation was found,"recombinant BK (mSlo1); rottlerin 0.5 μM bath application, outside-out patch, +30 mV, n=18",100%
same,channel conductance,"recombinant BK (mSlo1); rottlerin 0.5 μM, outside-out, 0 Ca2+",does not significantly change
same,inhibition,[2],87%
same,"adverse effect, mortality, morbidity",HDM-exposed mice; 5 μg/g intraperitoneal every other day,no significant adverse effect
same,cellular infiltrate in the peribronchial and perivascular regions,HDM-exposed mice; HDM-exposed animals,significant reduction
same,airway resistance,"HDM-exposed mice; HDM-sensitized mice, methacholine 25-50 mg/ml",marked decrease in their airway resistance
same,airway resistance,HDM-exposed mice; PBS-sensitized animals,no effect
same,IC50,other PKC isozymes,30 to 100 µM
same,maximal relaxation response to isoproterenol,"tracheal rings; OVA-sensitized rings, acute rottlerin in the bath 2 minutes prior to ISO",~45%
same,isoproterenol-induced relaxation,tracheal rings; PBS-treated (control) animals,enhanced the isoproterenol-induced relaxation
same,fertility rate,rats,reduce the fertility rate
same,capacity of GLAST,[3],decrease the capacity
same,membrane potential,"[4]; after rottlerin application (1 μM), FIGS. 11B and 11D",significant hyperpolarization
same,membrane potential,"[4]; perforated patch clamp, rottlerin 2 μM, FIG. 15",significant hyperpolarization
same,IC50,casein kinase II,30 to 100 µM
same,inhibition,PKA,83%
same,PMA-induced phosphorylation of Erk-1 and Erk-2,[5],blocked
same,channel activation,[6],activated the channel

# Reference: US20120184517A1, “TREATMENT OF DISEASES WITH ALTERED SMOOTH MUSCLE CONTRACTILITY” (priority 2009, published 2012)
